What is called melting point is the temperature of the solid-liquid transition.

Molecules are shown by their SMILES.

`O=C1c3c(N(\C=C1\C(=O)O)CC)cc2OCOc2c3` [oxolinic acid]: the melting point stood at 315 °C.
For `CC(C)c1cc(C(C)C)cc(C(C)C)c1` [1,3,5-triisopropylbenzene], the melting point was -7 °C.
For `Cc1ccc(cc1NC(=O)/C=CC(=O)O)Cl` [N-(5-chloro-2-methylphenyl)maleamic acid], the melting point was found to be 120 °C.
To `Nc1ccc(C(=O)O)cc1` [4-aminobenzoic acid] belongs 188 °C; to `CC=1CCCC(C)(C)C=1/C=CC(C)=CC=CC(/C)=CCO` [Vitamin A], 63.5 °C.
`COc1cc2nc(N3CCN(C(=O)C4COc5ccccc5O4)CC3)nc(N)c2cc1OC` (centres undefined) [Doxazosin] yielded a melting point of 290 °C.
Compound `O=C(O)C1C(C(=O)O)C2(Cl)C(Cl)=C(Cl)C1(Cl)C2(Cl)Cl` (centres undefined) showed a melting point of 240 °C.
For `NNc1c(F)c(F)c(F)c(F)c1F` [pentafluorophenylhydrazine], the melting point was 76 °C.
In the case of `Cc1cc(C(=O)NNCc2ccccc2)no1` [isocarboxazid] it was 106 °C; in that of `O=C(O)CCCCCCC[C@H](O)[C@H](O)CCCCCCO` [erythro-aleuritic acid], 99 °C.
As to `CCCCCCCCCC(=O)O` [decanoic acid], the melting point was determined as 31 °C.
With `O=C4\C=C3/[C@]([C@H]2CC[C@]1([C@@H](CC[C@@]1(O)C)[C@@H]2CC3)C)(C)CC4` [methyltestosterone], the melting point was 163 °C.
In turn, `O=Cc1cc(B(O)O)ccc1F` [4-fluoro-3-formylbenzeneboronic acid] came in with a melting point of 240 °C.
With `CCC(=O)C(C[C@H](C)N(C)C)(c1ccccc1)c1ccccc1` [methadone], the melting point was found to be 102 °C.
Consider `O=C(O)c1cc2ccccc2s1` [benzo[b]thiophene-2-carboxylic acid], for which the melting point was determined as 239 °C.
As for `Cc1ccc(Cl)c([N+](=O)[O-])c1` [4-chloro-3-nitrotoluene], the melting point was 7 °C.
In the case of `O=[N+]([O-])c1c(Br)sc(Br)c1[N+](=O)[O-]` [2,5-dibromo-3,4-dinitrothiophene], the melting point was determined as 136 °C.
As for `COc1cccc(C(=O)O)c1` [3-methoxybenzoic acid], the melting point was 106 °C.
On to `CC(=O)Nc1ccccc1` [acetanilide], for which the melting point is 114 °C.
In the case of `N#CC(=CNNc1ccccc1)c1ccccc1` [2-phenyl-3-(2-phenylhydrazino)prop-2-enenitrile] it was 156 °C.
As to `NC(=O)C(F)(F)F` [2,2,2-trifluoroacetamide], the melting point worked out at 73 °C.
`O=C(O)CC(CC(=O)O)c1ccc(Cl)cc1` [3-(4-chlorophenyl)glutaric acid] registered a melting point of 166 °C.
With `Cc1cccc2c1Cc1ccccc1-2` [1-Methylfluorene], the melting point was found to be 85 °C.
Compound `c1cc2c3c(cccc3c1)CC2` [acenaphthene] displayed a melting point of 95 °C.
For `O=C1/C(=N\Nc2cccc(F)c2)C(C(F)(F)F)=NN1c1ccccc1`, the melting point worked out at 106 °C.
Turning to `CCOc1ccc(B(O)O)cc1` [4-ethoxybenzeneboronic acid], the melting point was found to be 167 °C.
With `Cc1ccnc(NS(=O)(=O)c2ccc(N)cc2)n1` [sulfamerazine], the melting point was found to be 235 °C.
In the case of `O=C(O)CSCc1ccccc1` [(benzylthio)acetic acid], the melting point amounted to 62 °C.
In turn, `CC(=O)Nc1ccccc1S(C)(=O)=O` [2'-(methylsulfonyl)acetanilide] came in with a melting point of 145 °C.

(Values after the Bradley open melting point set (2014).)
